Assay results reported in patent US20220235065A1 (Epizyme, Inc., priority 2016, published 2022).

Tests used:
EHMT1 = target: T1, EHMT1 (Homo sapiens, UniProt Q9H9B1); experiment: EHMT1 PEP (EHMT1 peptide enzyme assay); format: biochemical; details: peptide substrate enzyme assay
T1 sequence (Q9H9B1 1-1298): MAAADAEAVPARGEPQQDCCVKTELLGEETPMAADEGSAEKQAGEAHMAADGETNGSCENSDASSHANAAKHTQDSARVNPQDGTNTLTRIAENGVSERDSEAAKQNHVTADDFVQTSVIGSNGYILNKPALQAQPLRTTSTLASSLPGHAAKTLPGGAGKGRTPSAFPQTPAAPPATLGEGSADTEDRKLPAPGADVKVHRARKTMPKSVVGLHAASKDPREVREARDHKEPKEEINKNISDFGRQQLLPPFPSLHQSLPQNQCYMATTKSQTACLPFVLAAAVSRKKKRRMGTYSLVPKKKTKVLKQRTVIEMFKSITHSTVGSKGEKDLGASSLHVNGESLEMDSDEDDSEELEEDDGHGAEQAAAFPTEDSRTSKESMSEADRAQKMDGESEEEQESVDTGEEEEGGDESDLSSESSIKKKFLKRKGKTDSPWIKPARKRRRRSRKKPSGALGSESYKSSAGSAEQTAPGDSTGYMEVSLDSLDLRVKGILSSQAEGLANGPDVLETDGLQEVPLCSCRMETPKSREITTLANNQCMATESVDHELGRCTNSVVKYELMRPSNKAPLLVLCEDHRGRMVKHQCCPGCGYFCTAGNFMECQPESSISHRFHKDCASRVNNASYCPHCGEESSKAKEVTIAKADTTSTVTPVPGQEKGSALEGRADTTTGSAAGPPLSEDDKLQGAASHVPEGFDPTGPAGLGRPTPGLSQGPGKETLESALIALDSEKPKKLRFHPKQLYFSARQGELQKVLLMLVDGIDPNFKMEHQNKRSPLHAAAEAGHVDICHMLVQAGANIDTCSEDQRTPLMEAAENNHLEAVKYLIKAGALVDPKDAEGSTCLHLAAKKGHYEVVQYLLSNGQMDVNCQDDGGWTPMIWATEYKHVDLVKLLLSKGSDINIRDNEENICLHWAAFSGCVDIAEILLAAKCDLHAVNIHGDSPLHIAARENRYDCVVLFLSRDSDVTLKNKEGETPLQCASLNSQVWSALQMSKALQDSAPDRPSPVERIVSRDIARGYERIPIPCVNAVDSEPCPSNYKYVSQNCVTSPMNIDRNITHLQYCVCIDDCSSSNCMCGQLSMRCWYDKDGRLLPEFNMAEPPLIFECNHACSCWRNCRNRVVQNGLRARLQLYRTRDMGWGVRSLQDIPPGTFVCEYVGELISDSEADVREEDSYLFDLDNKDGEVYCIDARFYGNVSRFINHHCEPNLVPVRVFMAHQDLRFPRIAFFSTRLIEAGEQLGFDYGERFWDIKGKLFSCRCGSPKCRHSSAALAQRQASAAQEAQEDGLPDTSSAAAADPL

[1] = tested on: H3K9me2 in MDA-MB-231 cells; experiment: MDA-MB-231 H3K9me2 in-cell western assay; format: cell-based; details: Homo sapiens, read-out: EHMT2 ICW (IC50 μM)
Excerpt: MDA-MB-231 cell line was purchased from ATCC (Manassas, Va., USA). RPMI/Glutamax medium, Penicillin-Streptomycin, Heat Inactivated Fetal Bovine Serum, and D-PBS were purchased from Life Technologies (Grand Island, N.Y., USA). Odyssey blocking buffer, 800CW goat anti-mouse IgG (H+L) antibody, and Licor Odyssey Infrared Scanner were purchased from Licor Biosciences, Lincoln, Nebr., USA. H3K9me2 mouse monoclonal antibody (Cat #1220) was purchased from Abcam (Cambridge, Mass., USA). 16% Paraformaldehyde was purchased from Electron Microscopy Sciences, Hatfield, Pa., USA). MDA-MB-231 cells were maintained in complete growth medium (RPMI supplemented with 10% v/v heat inactivated fetal bovine serum) and cultured at 37° C. under 5% CO2. UNC0638 was purchased from Sigma-Aldrich (St. Louis, Mo., USA).
General Procedure for MDA-MB-231 HEK9me2 In-Cell Western Assay.
Compound (100 nL) was added directly to 384-well cell plate. MDA-MB-231 cells (ATCC) were seeded in assay medium (RPMI/Glutamax supplemented with 10% v/v heat inactivated fetal bovine serum and 1% Penicillin/Streptomycin, Life Technologies) at a concentration of 3,000 cells per well to a Poly-D-Lysine coated 384-well cell culture plate with 50 μL per well. Plates were incubated at 37° C., 5% CO2 for 48 hours (BD Biosciences 356697). Plates were incubated at room temperature for 30 minutes and then incubated at 37° C., 5% CO2 for additional 48 hours. After the incubation, 50 μL per well of 8% paraformaldehyde (Electron Microscopy Sciences) in PBS was added to the plates and incubated at room temperature for 20 minutes. Plates were transferred to a Biotek 406 plate washer and washed 2 times with 100 μL per well of wash buffer (1×PBS containing 0.3% Triton X-100 (v/v)). Next, 60 μL per well of Odyssey blocking buffer (Licor Biosciences) was added to each plate and incubated for 1 hour at room temperature. Blocking buffer was removed and 20 μL of monoclonal primary antibody α-H3K9me2 (Abcam) diluted 1:800 in Odyssey buffer with 0.1% Tween 20 (v/v) were added and plates were incubated overnight (16 hours) at 4° C. Plates were washed 5 times with 100 μL per well of wash buffer. Next 20 μL per well of secondary antibody was added (1:500 800CW […] anti-mouse IgG (H+L) antibody (Licor Biosciences), 1:1000 DRAQ5 (Cell Signaling Technology) in Odyssey buffer with 0.1% Tween 20 (v/v)) and incubated for 1 hour at room temperature. The plates were washed 5 times with 100 μL per well wash buffer then 2 times with 100 μL per well of water. Plates were allowed to dry at room temperature then imaged on a Licor Odyssey Infrared Scanner (Licor Biosciences) which measured integrated intensity at 700 nm and 800 nm wavelengths. Both 700 and 800 channels were scanned.
% Inhibition Calculation.
First, the ratio for each well was determined by
Each plate included fourteen control wells of DMSO only treatment (Minimum Inhibition) as well as fourteen control wells (background wells) for maximum inhibition treated with control compound UNC0638 (Background wells).
The average of the ratio values for each well was calculated and used to determine the percent inhibition for each test well in the plate. Control compound was serially diluted three-fold in DMSO for a total of 10 test concentrations beginning at 1 μM. Percent inhibition was calculated as: […]
IC50 curves were generated using triplicate wells per concentration of compound. The IC50 is the concentration of compound at which measured methylation is inhibited by 50% as interpolated from the dose response curves. IC50 values were calculated using a non-linear regression (variable slope-four parameter fit model) with by the following formula
where Top is fixed at 100% and Bottom is fixed to 0%, [I]=concentration of inhibitor, IC50=half maximal inhibitory concentration and n=Hill Slope.

Row | SMILES | IC50 (EHMT1) [µM] | IC50 [1] [µM]
1 | CNCc1cnn(-c2cc3c(cc2OC)C2(CCC2)C(NC)=N3)c1 [Compound 187] | < 0.1 | 0.1 to 1
2 | CNc1cc(C)nc(Nc2cnc(OC)c(-n3cc(C4CCCN4)cn3)c2)n1 (centres unmarked) [Compound 188] | 0.1 to 1 | 1 to 10
3 | CNc1ccnc(Nc2ccc(OC)c(-n3cc(CNC4CCC4)nn3)c2)n1 [Compound 191] | 0.1 to 1 | > 10
4 | CNC1=Nc2cc(-n3cc([C@H]4CCCN4)nn3)c(OC)cc2C12CCC2 [Compound 192] | < 0.1 | 0.1 to 1
5 | COc1cc2c(cc1-n1cc([C@H]3CCCN3)nn1)N=C(N)C21CCC1 [Compound 193] | < 0.1 | 0.1 to 1
6 | COc1cc2c(cc1-n1cc(C3CCCN3)nn1)N=C(N)C21CCC1 (centres unmarked) [Compound 194] | < 0.1 | 0.1 to 1
7 | COc1cc2c(cc1-n1cc([C@@H]3CCCN3)nn1)N=C(N)C21CCC1 [Compound 195] | 0.1 to 1 | 1 to 10
8 | CNc1cc(C2CCOCC2)c2cc(OC)c(-n3cc(C4CCCN4)nn3)cc2n1 (centres unmarked) [Compound 196] | 0.1 to 1 | 1 to 10
9 | CNc1cc(C)nc(Nc2ccc(OC)c(-c3[nH]c4cnccc4c3F)c2)n1 [Compound 199] | < 0.1 | 1 to 10
10 | CNc1cc(C)nc(Nc2ccc(OC)c(-c3[nH]c4cnccc4c3C)c2)n1 [Compound 200, N2-(4-methoxy-3-(3-methyl-1H-pyrrolo[2,3-c]pyridin-2-yl)phenyl)-N4,6-dimethylpyrimidine-2,4-diamine] | < 0.1 | < 0.1
11 | CNc1cc(C)nc(Nc2ccc(OC)c(-c3cc4ncncc4[nH]3)c2)n1 [Compound 201] | 1 to 10 | > 10
12 | COc1cc2c(cc1-c1cc3ccncc3[nH]1)N=C(N)C21CCC1 [Compound 202] | < 0.1 | 1 to 10
13 | CNc1cc(C)nc(Nc2cnc(OC)c(-c3cc4ccncc4[nH]3)c2)n1 [Compound 204] | 1 to 10 | > 10
14 | COc1cc(NC2CCNCC2)ncc1-c1cc2ccncc2[nH]1 [Compound 205] | 1 to 10 | > 10
15 | CNc1cc(C)nc(Nc2ccc(OC)c(-c3cc4[nH]ccc4cn3)c2)n1 [Compound 206, N2-(4-methoxy-3-(1H-pyrrolo[3,2-c]pyridin-6-yl)phenyl)-N4,6-dimethylpyrimidine-2,4-diamine] | < 0.1 | < 0.1
16 | CNc1cc(C)nc(Nc2ccc(OC)c(-c3cc4[nH]c(C)cc4cn3)c2)n1 [Compound 207] | < 0.1 | 0.1 to 1
17 | COc1cc(NC2CCNCC2)ncc1-c1cc2[nH]ccc2cn1 [Compound 208] | 1 to 10 | > 10
18 | CNc1nc2cc(-c3cc4[nH]ccc4cn3)c(OC)cc2n1C [Compound 209] | 0.1 to 1 | > 10
19 | CNc1cc(C)nc(Nc2ccc(OC)c(-c3cc4[nH]cnc4cn3)c2)n1 [Compound 210] | < 0.1 | 1 to 10

Row | SMILES | IC50 (EHMT1) [µM] | IC50 [1] [µM]
20 | CNc1cc(C)nc(Nc2ccc(OC)c(-n3cc([C@@H]4CCCN4)nn3)c2)n1 [Compound 212, (S)—N2-(4-methoxy-3-(4-(pyrrolidin-2-yl)-1H-1,2,3-triazol-1-yl)phenyl)-N4,6-dimethylpyrimidine-2,4-diamine] | < 0.1 | 0.1 to 1
21 | CNc1cc(C)nc(Nc2ccc(OC)c(-n3cc([C@H]4CCCN4)nn3)c2)n1 [Compound 213] | < 0.1 | 0.1 to 1
22 | CNC1=Nc2cc(-c3cc4[nH]ccc4cn3)c(OC)cc2C12CCC2 [Compound 214] | < 0.1 | 0.1 to 1
23 | CNC1=Nc2cc(-c3cc4ccncc4[nH]3)c(OC)cc2C12CCC2 [Compound 215] | < 0.1 | 0.1 to 1
24 | CNC1=Nc2cc(-c3[nH]c4cnccc4c3Cl)c(OC)cc2C12CCC2 [Compound 216] | < 0.1 | 0.1 to 1
25 | CNc1cc(C)nc(Nc2ccc(OC)c(-c3ccc4c(c3)NC(=O)C4)c2)n1 [Compound 218] | > 10 | 1 to 10
26 | CNc1cc(C)nc(Nc2ccc(OC)c(-c3cc4c(cn3)CC(=O)N4)c2)n1 [Compound 219] | 0.1 to 1 | > 10
27 | CNc1cc(C)nc(Nc2ccc(OC)c(-c3cc4[nH]ccc4cn3)c2OC)n1 [Compound 220] | 1 to 10 | > 10
28 | CNc1cc(C)nc(Nc2ccc(OC)c(-c3cc4[nH]ccc4cn3)c2F)n1 [Compound 221] | < 0.1 | 0.1 to 1
29 | CNCc1cnn(-c2c(OC)ccc(Nc3nc(C)cc(NC)n3)c2OC)c1 [Compound 222] | < 0.1 | 0.1 to 1
30 | CNc1cc(C)nc(Nc2ccc(OC)c(-c3cnc4cc[nH]c4c3)c2)n1 [Compound 223] | < 0.1 | 0.1 to 1
31 | CNc1cc(-c2cc(Nc3nc(C)cc(NC)n3)ccc2OC)ncn1 [Compound 225] | < 0.1 | 1 to 10
32 | CNc1cc(C)nc(Nc2ccc(OC)c(-c3cc4[nH]ccc4nc3C)c2)n1 [Compound 228] | < 0.1 | 0.1 to 1
33 | CNc1cc(C)nc(Nc2ccc(OC)c(-c3cc4[nH]cc(F)c4cn3)c2)n1 [Compound 229] | < 0.1 | 0.1 to 1
34 | CNc1cc(-c2cc(Nc3nc(C)cc(NC)n3)ccc2OC)nc(C)n1 [Compound 230] | < 0.1 | 1 to 10
35 | COc1cc(NC2CCNCC2)ccc1-c1cc2[nH]ccc2cn1 [Compound 231] | 1 to 10 | > 10
36 | CNc1cc(C)nc(Nc2ccc(OC)c(-c3cc(C4CC4)ncn3)c2)n1 [Compound 232] | 1 to 10 | 1 to 10
37 | CNc1cc(C)nc(Nc2ccc(OC)c(-c3cc(C4CC4)cnn3)c2)n1 [Compound 233] | 0.1 to 1 | 1 to 10
